Experimental findings from patent US7473772B2, “Chimeric GB virus B (GBV-B)” (The Board of Regents of The University of Texas System, priority 2003, dated 2009) are described below.

This data set relates to tamarin without a prior history of GBV-B infection. Nature of the data set: Intrahepatic inoculation of synthetic GBV-B RNA into a tamarin; serum GBV-B RNA by real-time quantitative RT-PCR (TaqMan). The conditions noted are these: about 60 μg RNA intrahepatic. The class given is in vivo, Saguinus oedipus. An excerpt:
Plasmid DNA containing the GBV-B cDNA was purified by isopycnic centrifugation on a CsCl gradient and isolated by ethanol precipitation. The plasmid DNA was linearized at the 3′ terminus of the cDNA insert by digestion with Xho I. Two μg of the linearized DNA was used as template in an in vitro transcription reaction using the Ambion T7 MEGAscript Kit according to the manufacturer's instructions. The integrity of the resultant synthetic RNA product was confirmed by nondenaturing agarose gel electrophoresis.
Approximately 60 μg of RNA transcribed from the GBV-B cDNA clone was diluted in phosphate buffered saline and injected under direct visualization at laparotomy into the liver of a healthy tamarin without a prior history of GBV-B infection (Saguinus oedipus). Serum samples were collected from the animal weekly beginning at 2 weeks post-inoculation and tested for the presence of GBV-B RNA by real-time quantitative RT-PCR (TaqMan® assay).

For “GBV-B cDNA clone: synthetic RNA transcribed from the full-length 9.4 kb GBV-B cDNA clone containing the novel 3′ terminal sequence”, the “GBV-B RNA in serum” value is, setting by setting: (week 2 postinoculation) 8.3 × 10^3 Genome equivalents/ml; (week 3 postinoculation) 6.6 × 10^5 Genome equivalents/ml; (week 4 postinoculation) 4.6 × 10^8 Genome equivalents/ml.
